From publication PMC8386128, “Evaluation of Short-Chain Antimicrobial Peptides With Combined Antimicrobial and Anti-inflammatory Bioactivities for the Treatment of Zoonotic Skin Pathogens From Canines” (Frontiers in Microbiology, 2021)
Read-outs that look alike come from different tables or passages of the source.

How the values were obtained:
[1] = tested on: S. pseudintermedius MW767056; assay: Bacteriolysis analysis (culture turbidity at 600 nm); type: cell-based, Staphylococcus pseudintermedius; conditions: 4× MIC, result in words
[2] = tested on: S. pseudintermedius MW767056; assay: Calcein leakage analysis (membrane permeabilization); type: cell-based, Staphylococcus pseudintermedius; conditions: 10× MIC, up to 1 h, triplicate, two independent experiments
TNF-α = assay: Western blotting of TNF-α in infected mouse skin; type: in vivo, BALB/c mice; conditions: day 1, vs saline-treated group, normalized to β-actin, n = 3
Description: To examine the expression of IL-6 and TNF-α at the protein level, immunoblotting was performed as reported previously ([Tang et al., 2017]). Proteins from dorsal skin tissues were extracted for Western blotting assays. Primary antibodies included anti-IL-6 (1:1,000, Abcam, Waltham, MA, United States) and anti-TNF-α (1:1,000, Abcam, United States). To verify equal sample loading, the membrane was incubated with rabbit polyclonal anti-β-actin antibody (1:1,000, Abcam, United States) as an internal control. Horseradish peroxidase-conjugated goat anti-rabbit IgG (1:5000, Abcam, United States) was used as the secondary antibody. The membranes were exposed under a chemiluminescent imaging analysis system (GE Healthcare Life Science, Danderyd, Sweden). Samples not treated with primary antibodies were considered negative controls. Relative levels of each protein were normalized to those of β-actin in each sample.

[3] = tested on: Staphylococcus pseudintermedius MW767056; conditions: peptide constant at 1/4 × MIC, 1 × 10^5 CFU/ml, triplicate
[4] = tested on: Staphylococcus cohnii MW767053; conditions: peptide constant at 1/4 × MIC, 1 × 10^5 CFU/ml, triplicate
[5] = tested on: S. pseudintermedius MW767056 skin infection; assay: Mouse skin infection (abrasion) model; conditions: topical 50 μl at 6× MIC daily, n = 5; for bacterial counts of infected skin tissue: inoculum 5 × 10^6 CFU, mean
[6] = in combination with Allomyrinasin

## CC1(C)S[C@@H]2[C@H](NC(=O)[C@H](N)c3ccc(O)cc3)C(=O)N2[C@H]1C(=O)O [Amoxicillin, amoxicillin]
[1]
  variation in culture turbidity (OD600) over 10 h: not recorded
[2]
  calcein leakage (decrease in fluorescence intensity): no obvious disruptive reaction
TNF-α
  expression level of TNF-α protein in infected skin: decreased
[3]; [6]
  FIC index: 0.281
[3]; in combination with Andricin B
  FIC index: indifferent interaction
[4]; [6]
  FIC index: 0.3125
[4]; in combination with Andricin B
  FIC index: 0.50
[5]; day 1
  bacterial counts of infected skin tissue: 5.94 log10 CFU/g
  bacterial load in the liver: No bacterial load was detected
[5]; day 3
  bacterial counts of infected skin tissue: 3.58 log10 CFU/g
  S. pseudintermedius infection in the liver: completely prevented
